From patent US20180110824A1, “Macrocyclic Modulators of the Ghrelin Receptor” (Ocera Therapeutics, Inc., priority 2016, published 2018) come the findings set out here.

As usually defined, the Ki is the dissociation constant of the complex between target and ligand, obtained from inhibition or displacement.

For the test, the target named is T1, human growth hormone secretagogue receptor (hGHS-R1a) (Homo sapiens, UniProt Q92847).
T1 construct: purchased PerkinElmer BioSignal #RBHGHSM; host or cells: HEK-293, stably transfected
The test can be described thus: Competitive radioligand binding assay (ghrelin receptor), [125I]-ghrelin displacement on GHS-R/HEK 293 membranes.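 On Binding Activity at the Human Ghrelin Receptor (Ki): symbols B 10-100 nM C 0.1-1 µM D 1-10 µM F above 1 µM G above 10 µM.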 The protocol: The competitive binding assay at the human growth hormone secretagogue receptor (hGHS-R1a) was carried out analogously to assays described in the literature.
Multiscreen Harvest plates-GF/C (Millipore, #MAHFC1H60) • 4. […] Bottom seal (Millipore, #MATAH0P00) • 7. […] Binding Buffer: 25 mM Hepes (pH 7.4), 1 mM CaCl2, 5 mM MgCl2, 2.5 mM EDTA, 0.4% BSA
Competition experiments were performed in a 300 μl filtration assay format. • 1. 220 μL of membranes diluted in binding buffer • 2. 40 μL of compound diluted in binding buffer • 3.
Compounds were provided frozen on dry ice at a stock concentration of 10 mM diluted in 100% DMSO and stored at −80° C. until the day of testing. On the test day, compounds were allowed to thaw at rt O/N and then diluted in assay buffer according to the desired test concentrations. Under these conditions, the maximal final DMSO concentration in the assay was 0.1%.
Plates were sealed with TopSeal-A, vortexed gently and incubated at rt for 30 min. The reaction was arrested by filtering samples through Multiscreen Harvest plates (pre-soaked in 0.5% polyethyleneimine) using a Tomtec Harvester, washed 9 times with 500 μL of cold 50 mM Tris-HCl (pH 7.4, 4° C.), and then plates were air-dried in a fumehood 30 min. A bottom seal was applied to the plates prior to the addition of 25 μL of MicroScint-0 to each well. […] Results were expressed as counts per minute (cpm).
Data were analyzed by GraphPad Prism (GraphPad Software, San Diego, Calif.) using […] non-linear regression analysis.
where total and non-specific binding represent the cpm obtained in the absence or presence of 1 μM ghrelin, respectively.
• 1. Binding performed on membranes prepared from HEK293 expressing the transfected, cloned human ghrelin receptor (hGHS-R1a). • 2. […] Ghrelin (unlabeled, 1 μM) was used to determine non-specific binding. • 4.

[1] abbreviates: [125I]-ghrelin displacement, GHS-R/HEK 293 membranes, class symbols, read-out: Binding Activity at the Human Ghrelin Receptor (Ki).
Setting [2] is: Table 3B, binding activity at the human ghrelin receptor, read-out: Ki.

Like-named read-outs stand apart in the source and are kept apart here.

T1 sequence (Q92847 whole entry): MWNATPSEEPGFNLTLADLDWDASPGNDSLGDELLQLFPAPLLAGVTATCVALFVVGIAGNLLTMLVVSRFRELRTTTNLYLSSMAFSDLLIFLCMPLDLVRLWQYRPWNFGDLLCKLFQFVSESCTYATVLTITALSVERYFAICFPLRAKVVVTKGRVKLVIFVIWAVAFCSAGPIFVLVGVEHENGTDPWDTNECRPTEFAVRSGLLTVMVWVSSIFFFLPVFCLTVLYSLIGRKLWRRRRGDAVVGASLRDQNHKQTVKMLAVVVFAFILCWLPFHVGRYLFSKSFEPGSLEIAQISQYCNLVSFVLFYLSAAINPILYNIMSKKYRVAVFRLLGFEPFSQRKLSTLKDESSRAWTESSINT

With `CCC(C)C1NCCOc2ccccc2CCCNC(=O)C(Cc2ccccc2)NC(=O)C(COC(C)(C)C)NC1=O` (stereo not drawn) [compound 215], the Ki under setting [1] was 1000 to 10000 nM. For the compound `CC(C)[C@@H]1NCCOc2ccccc2CCCNC(=O)[C@H](Cc2ccccc2)NC(=O)C2(CC2)NC1=O` [compound 216], the Ki under setting [1] lay within 1000 to 10000 nM.

In the case of `O=C1NC/C=C/c2ccccc2OCCNC2(CCCCC2)C(=O)NC2(CCCC2)C(=O)N[C@H]1Cc1ccccc1` [compound 218], the Ki under setting [1] is 10 to 100 nM.

Turning to `O=C1NC2(CCCC2)C(=O)N[C@@H](Cc2ccccc2)C(=O)NC/C=C/c2ccccc2OCCN[C@H]1Cc1cnc[nH]1` [compound 219], the Ki under setting [1] fell in the range of 100 to 1000 nM. In the case of `CCC[C@@H]1NCCOc2ccccc2CCCNC(=O)[C@@H](Cc2ccccc2)NC(=O)[C@@H]2CCCN2C1=O` [compound 220], the Ki is, setting by setting: (Table 3E, read-out: Ki) 1000 to 10000 nM; under setting [1], 1000 to 10000 nM. Take `CC(C)C[C@@H]1NCCOc2ccccc2CCCNC(=O)[C@H](Cc2ccccc2)NC(=O)[C@@H]2CCCN2C1=O` [compound 222]: the Ki by setting is: (Table 3E, read-out: Ki) 1000 to 10000 nM; under setting [1], 1000 to 10000 nM. In the case of `CC(C)C[C@@H]1NCCOc2ccccc2CCCNC(=O)[C@H](Cc2ccccc2)NC(=O)[C@H]2CCCN2C1=O` [compound 223], the Ki (Table 3E, read-out: Ki) was 1000 to 10000 nM and the Ki under setting [1] was in the range of 1000 to 10000 nM.

With `C[C@@H]1C(=O)N[C@H](Cc2ccccc2)C(=O)NCCCc2ccccc2OCCN2CCC[C@H]2C(=O)N1C` [compound 225], the Ki was in the range of 100 to 1000 nM (Table 3E, read-out: Ki) and 100 to 1000 nM under setting [1]. As to `O=C1NC2(CCCC2)C(=O)N[C@@H](Cc2cccc(Cl)c2)C(=O)NC/C=C/c2ccccc2OCCN[C@H]1Cc1ccc(O)cc1` [compound 301], the inhibition constant Ki under setting [2] lay in the range of 10 to 100 nM.

Regarding `C[C@@H]1C(=O)N[C@H](Cc2ccc(F)cc2)C(=O)NCCC=CCOCCN[C@@H](C2CC2)C(=O)N1C` [compound 307], the Ki under setting [2] was 100 to 1000 nM. `C[C@@H]1C(=O)N[C@H](Cc2ccc(F)cc2)C(=O)NCCCc2ccccc2OCCN[C@@H](C2CC2)C(=O)N1C` [compound 309]: under setting [2], the Ki lay within 0.1 to 10 nM. In the case of `C[C@@H]1C(=O)N[C@H](Cc2ccsc2)C(=O)NCCCc2ccccc2OCCN[C@@H](C2CC2)C(=O)N1C` [compound 310], under setting [2], the Ki fell in the range of 10 to 100 nM. Still for that read-out and setting: to `C[C@@H]1C(=O)N[C@H](Cc2ccccc2F)C(=O)NCCCc2ccccc2OCCN[C@@H](C2CC2)C(=O)N1C` [compound 312] belongs 0.1 to 10 nM; to `C[C@@H]1C(=O)N[C@H](Cc2cccc(F)c2)C(=O)NCCCc2ccccc2OCCN[C@@H](C2CC2)C(=O)N1C` [compound 313], 10 to 100 nM; to `C[C@@H]1C(=O)N[C@H](Cc2ccc(Cl)c(Cl)c2)C(=O)NCCCc2ccccc2OCCN[C@@H](C2CC2)C(=O)N1C` [compound 315], 0.1 to 10 nM. Turning to `C[C@@H]1C(=O)N[C@H](Cc2ccc(F)c(F)c2)C(=O)NCCCc2ccccc2OCCN[C@@H](C2CC2)C(=O)N1C` [compound 316], the Ki under setting [2] fell in the range of 10 to 100 nM.

On to `C[C@@H]1C(=O)N[C@H](Cc2cc(F)cc(F)c2)C(=O)NCCCc2ccccc2OCCN[C@@H](C2CC2)C(=O)N1C` [compound 317], for which the inhibition constant (Ki) under setting [2] fell in the range of 10 to 100 nM. On the same count and under the same terms, next, `C[C@@H]1C(=O)N[C@H](Cc2ccc(Br)cc2)C(=O)NCCCc2ccccc2OCCN[C@@H](C2CC2)C(=O)N1C` [compound 319]: 0.1 to 10 nM; `C[C@@H]1C(=O)N[C@H](Cc2ccc(I)cc2)C(=O)NCCCc2ccccc2OCCN[C@@H](C2CC2)C(=O)N1C` [compound 320]: 0.1 to 10 nM. Regarding `C[C@@H]1C(=O)N[C@H](Cc2ccc(C#N)cc2)C(=O)NCCCc2ccccc2OCCN[C@@H](C2CC2)C(=O)N1C` [compound 321], under setting [2], the Ki was in the range of 10 to 100 nM.

In the case of `COc1ccc(C[C@H]2NC(=O)[C@@H](C)N(C)C(=O)[C@H](C3CC3)NCCOc3ccccc3CCCNC2=O)cc1OC` [compound 323], the Ki under setting [2] lay within 100 to 1000 nM.

In the case of `CC[C@H](C)[C@@H]1NCCOc2ccccc2/C=C/CNC(=O)[C@H](Cc2cccc(Br)c2)NC(=O)C2(CCCC2)NC1=O` [compound 326], under setting [2], the inhibition constant Ki lay within 10 to 100 nM. The same measure, in the same setting: to `CC[C@H](C)[C@@H]1NCCOc2ccccc2/C=C/CNC(=O)[C@H](Cc2cccc(C#N)c2)NC(=O)C2(CCCC2)NC1=O` [compound 329] belongs 10 to 100 nM.
